Legend:
nitric oxide (NO) = experiment: Nitric oxide (NO)-reducing effect in LPS-treated Raw 264.7 cells (Griess reagent); format: cell-based, mouse; conditions: 100 ng/mL LPS, 24-hr culture, maximum decrease (up to), LPS only = 100%, FIG. 6
Protocol: In inflammatory environments, the nitric oxide (NO)-reducing effect of the composition including substance P was examined in Raw 264.7 cells which are mouse macrophages. […] were put in a 24-well plate at a density of 4×10^5 CFU/well, and incubated at 37° C. for 24 hours. A growth medium for Raw 264.7 cells was prepared by mixing DMEM (Welgene, Korea) with 200 mM of L-glutamine (Gibco, USA). After 24-hr culture, the medium was removed, and then 1 mL of a fresh medium was dispensed into each well. […] In this regard, the concentration of the composition or the substance P added was determined such that its final concentration became a desired concentration, taking into consideration the total volume of the medium.
After 24-hr culture, the supernatant was collected, and 100 μL thereof was added to a 96-well plate, and an equal volume of Griess reagent (Sigma, USA) was added thereto, and the plate was left at room temperature for 15 minutes. Then, absorbance at 540 nm was measured. […] The production amount of nitric oxide (NO) in the group treated with LPS only was regarded as 100%, and the amount of nitric oxide (NO) in the medium was determined.
Significant NO reduction was determined using Student's t-test by comparing the NO amount practically measured in the experimental group with that of the LPS-treated group (*p<0.05, **p<0.01).

collagenase (MMP-1) = experiment: Collagenase (MMP-1) inhibition effect in skin fibroblasts (Human total MMP-1 kit); format: cell-based; conditions: 24-hr culture, maximum decrease (up to) relative to PBS control, FIG. 4
Protocol: (§1) The collagenase (MMP-1) inhibition effect of the composition including substance P was examined in skin fibroblasts. Human skin fibroblasts were put in a 96-well plate at a density of 3×10^4 CFU/well, and incubated at 37° C. for 24 hours. The medium (FGM, Lonza, USA) was removed, and then 180 μL of a fresh medium was dispensed into each well, and 20 μL of the composition including substance P or substance P dissolved in a phosphate buffer solution (PBS) was added thereto, followed by incubation at 37° C. for 24 hours. In this regard, the concentration of the composition or the substance P added was determined such that its final concentration became a desired concentration, taking into consideration the total volume of the medium. After 24-hr culture, the supernatant was collected, and the amount of collagenase (MMP-1) in the medium was measured using a Human total MMP-1 kit (R&D systems, USA).
(§2) The difference was statistically significant. Statistical analysis was performed using Student's t-test, and the MMP-1 production of each experimental group (*p<0.05, **p<0.01) relative to the control (phosphate buffer solution-treated group) and the MMP-1 productions by substance P dissolved in phosphate buffer solution and the composition of the present invention (#p<0.05, ##p<0.01) were compared.

[1] = system: inflammatory cytokine IL-6; experiment: Inflammatory cytokine IL-6-reducing effect in LPS-treated Raw 264.7 cells; format: cell-based, mouse; conditions: 100 ng/mL LPS, 24-hr culture, maximum decrease (up to) relative to LPS-treated group, FIG. 5
Protocol: The inflammatory cytokine IL-6-reducing effect of the composition including substance P was examined in Raw 264.7 cells which are mouse macrophages. […] were put in a 24-well plate at a density of 4×10^5 CFU/well, and incubated at 37° C. for 24 hours. A growth medium for Raw 264.7 cells was prepared by mixing DMEM (Welgene, Korea) with 200 mM of L-glutamine (Gibco, USA). After 24-hr culture, the medium was removed, and then 1 mL of a fresh medium was dispensed into each well. To induce intracellular inflammation, 100 ng/mL of LPS (Sigma, USA) was treated thereto, and simultaneously, the composition including substance P or substance P dissolved in a phosphate buffer solution (PBS) was dispensed thereto such that the final volume was 2 mL/well, followed by incubation at 37° C. for 24 hours. In this regard, the concentration of the composition or the substance P added was determined such that its final concentration became a desired concentration, taking into consideration the total volume of the medium. After 24-hr culture, the supernatant was collected, and the amount of inflammatory cytokine IL-6 in the medium was measured by mouse IL-6 immunoassay (R&D systems, USA).
Significant IL-6 reduction was determined using Student's t-test by comparing the IL-6 amount practically measured in the experimental group with that of the LPS-treated group (*p<0.05, **p<0.01).

[2] = system: collagen synthesis in Human skin fibroblasts; experiment: Collagen synthesis effect in skin fibroblasts (Procollagen Type1-Peptide EIA); format: cell-based; conditions: 24-hr culture, maximum increase (up to) relative to PBS control, FIG. 3
Protocol: as §1, with “collagen synthesis” for “collagenase (MMP-1) inhibition”, “containing” for “including”, “collagen” for “collagenase (MMP-1)”, “Procollagen Type1-Peptide (PIP) EIA” for “Human total MMP-1”, “(TaKaRa, Japan).” for “(R&D systems, USA).”
as §2, with “the effects” for “the MMP-1 production”, “of” for “of each”, “experimental groups” for “experimental group”, “the effects of” for “the MMP-1 productions by”, “(#p<0.05, ##<0.01)” for “(#p<0.05, ##p<0.01)”

With “Arg-Pro-Lys-Pro-Gln-Gln-Phe-Phe-Gly-Leu-Met-NH2 [substance P]” the “decrease of amount of NO induced by LPS” value (nitric oxide (NO)) was “about 10%”, the “collagenase (MMP-1) production decrease” value (collagenase (MMP-1)) was “about 20%” and the “decrease of amount of IL-6 induced by LPS” value [1] was “about 20%”. For the same substance, the collagen synthesis increase [2] was “about 20%”.
